Measured values reported in patent publication US20230066946A1, “1,5-DIPHENYLPYRAZOLYL-3-OXYALKYL ACIDS AND 1-PHENYL-5-THIENYLPYRAZOLYL-3-OXYALKYL ACIDS AND THE USE THEREOF FOR CONTROL OF UNWANTED PLANT GROWTH” (Bayer Aktiengesellschaft, priority 2019, published 2023).

Legend:
AMARE [1] = test: Pre-emergence herbicidal action against AMARE; assay type: in vivo, Amaranthus retroflexus; details: 1280 g/ha, scored visually after about 3 weeks vs untreated controls
Source text: (§1) Seeds of mono- and dicotyledonous weed plants are placed in plastic pots in sandy loam soil (doubly sown with one species each of mono- or dicotyledonous weed plants per pot) and covered with soil. The compounds of the invention, formulated in the form of wettable powders (WP) or as emulsion concentrates (EC), are then applied onto the surface of the covering soil as aqueous suspension or emulsion with addition of 0.5% additive at a water application rate equivalent to 600 litres per hectare. After the treatment, the pots are placed in a greenhouse and kept under good growth conditions for the trial plants. After about 3 weeks, the effect of the preparations is scored visually in comparison with untreated controls as percentages. For example, 100% activity=the plants have died, 0% activity=like control plants. [table] Tables 4.1-4.15 below show the effects of selected compounds of the general formula (I) according to Tables 1 to 3 on various harmful plants at an application rate corresponding to 1280 or 320 g/ha, which have been obtained by the aforementioned experimental method.

AMARE [2] = test: Post-emergence herbicidal action against AMARE; assay type: in vivo, Amaranthus retroflexus; details: 1280 g/ha, visual rating about 3 weeks after treatment
Description: (§2) [table] Seeds of mono- and dicotyledonous weed plants are placed in plastic pots in sandy loam soil (twin sowing with one species each of mono- or dicotyledonous weed plants per pot), covered with soil and cultivated in a greenhouse under controlled growth conditions. 2 to 3 weeks after sowing, the test plants are treated at the one-leaf stage. The compounds of the invention, formulated in the form of wettable powders (WP) or as emulsion concentrates (EC), are applied to the green parts of the plants as aqueous suspension or emulsion with addition of 0.5% additive at a water application rate equivalent to 600 litres per hectare. After the test plants have been kept in the greenhouse under optimum growth conditions for about 3 weeks, the activity of the preparations is rated visually in comparison to untreated controls. For example, 100% activity=the plants have died, 0% activity=like control plants. Tables 5.1-5.16 below show the effects of selected compounds of the general formula (I) according to Tables 1 to 3 on various harmful plants at an application rate corresponding to 1280 or 320 g/ha, which have been obtained by the aforementioned experimental method.

STEME [3] = test: Pre-emergence herbicidal action against STEME; assay type: in vivo, Stellaria media; details: 1280 g/ha, scored visually after about 3 weeks vs untreated controls
Source text: as §1

SETVI = test: Pre-emergence herbicidal action against SETVI; assay type: in vivo, Setaria viridis; details: 1280 g/ha, scored visually after about 3 weeks vs untreated controls
Source text: as §1

STEME [4] = test: Post-emergence herbicidal action against STEME; assay type: in vivo, Stellaria media; details: 1280 g/ha, visual rating about 3 weeks after treatment
Description: as §2

SMILES | Pre-emergence action against AMARE in % (AMARE [1]) [%] | Post-emergence action against AMARE in % (AMARE [2]) [%] | Pre-emergence action against STEME in % (STEME [3]) [%] | Pre-emergence action against SETVI in % (SETVI) [%] | Post-emergence action against STEME in % (STEME [4]) [%]
CC#CCNC(=O)COc1nn(-c2ccc(F)cc2)c(-c2cccc(F)c2)c1Br [III-017] | 100 | 100 | 100 | 100 | 
COC(=O)COc1nn(-c2ccccc2F)c(-c2ccc([N+](=O)[O-])cc2)c1[N+](=O)[O-] [I-099] | 90 | 90 |  |  | 
O=C(COc1nn(-c2ccc(F)cc2)c(-c2cccc(F)c2)c1Cl)NCC1CC1 [III-025] |  | 90 | 100 |  | 100
CCCN(CCC)CCC.O=C(O)COc1nn(-c2cccc(F)c2)c(-c2ccccc2)c1I [II-07] | 90 |  | 90 |  | 
CC(C)(C)N.O=C(O)COc1nn(-c2cccc(F)c2)c(-c2ccccc2)c1I [II-09] | 90 |  | 100 |  | 100
O=C(O)COc1nn(-c2cccc(F)c2)c(-c2ccccc2)c1I [I-128] | 100 | 90 | 90 |  | 
CCNC.O=C(O)COc1nn(-c2cccc(F)c2)c(-c2ccccc2)c1I [II-08] |  |  |  |  | 90
CCOC(=O)COc1nn(-c2ccc(Cl)cc2F)c(-c2ccc(F)cc2Cl)c1Br [I-155] | 90 |  | 100 |  | 
C=CCNC(=O)COc1nn(-c2ccc(F)cc2)c(-c2cccc(F)c2)c1I [III-008] |  |  | 100 |  | 100
O=C(O)COc1nn(-c2ccc(F)cc2)c(-c2cccc(F)c2)c1I [I-118] | 100 |  |  | 90 | 
CCOC(=O)COc1nn(-c2ccc(Cl)cc2)c(-c2ccc(F)cc2)c1Br [I-078] | 90 | 100 |  | 100 | 
CCN(CC)CC.O=C(O)COc1nn(-c2cccc(F)c2)c(-c2ccccc2)c1I [II-14] | 100 |  |  |  | 
COC(=O)COc1nn(-c2ccc(F)cc2)c(-c2cccc(F)c2)c1[N+](=O)[O-] [I-108] | 90 |  |  | 100 | 
CCOC(=O)COc1nn(-c2ccc(Cl)cc2F)c(-c2ccc(F)cc2F)c1Br [I-150] |  |  | 100 |  | 100
CCCN.O=C(O)COc1nn(-c2cccc(F)c2)c(-c2ccccc2)c1I [II-06] | 90 |  | 90 |  | 100
COC(=O)COc1nn(-c2ccc(Cl)c(Cl)c2)c(-c2ccc(F)c(F)c2)c1Cl [I-027] |  | 80 |  |  | 
COC(=O)CNC(=O)COc1nn(-c2cccc(F)c2)c(-c2ccccc2)c1[N+](=O)[O-] [III-029] | 90 |  |  |  | 
COC(=O)COc1nn(-c2ccc(F)cc2)c(-c2cccc(F)c2)c1I [I-109] |  | 100 | 100 |  | 90
COC(=O)C(C)(C)Oc1nn(-c2ccccc2)c(-c2ccc(F)cc2)c1Br [I-135] |  |  | 100 |  | 
CCOC(=O)COc1nn(-c2c(F)cccc2F)c(-c2ccc(F)c(F)c2)c1[N+](=O)[O-] [I-144] | 100 |  |  | 100 | 
CCOC(=O)COc1nn(-c2ccccc2OC)c(-c2ccc(F)cc2F)c1Br [I-091] | 100 | 100 |  | 90 | 
O=C(COc1nn(-c2ccccc2)c(-c2ccc(F)cc2)c1Br)OCc1ccccc1 [I-112] | 100 |  | 100 |  | 
COC(=O)COc1nn(-c2ccc(C)cc2)c(-c2cccc(F)c2)c1C#N [I-020] |  |  | 80 |  | 
